What was measured:
[1] = molecular target: T1, TPKC1 (Homo sapiens, UniProt O95069, D309R/L311V/L365I/T411A/W310L); assay: TPCK1-induced currents in X. laevis oocytes, two-electrode voltage clamp; assay type: cell-based; set-up: The TPKC1 ORF was amplified by PCR with 5′ primer; expressed in transfected cells; host or cells: Xenopus laevis oocytes injected with cRNA transcribed from pLP163; conditions: for block of TPKC1 current: relative to Ba2+ (50% at 1 mM), data not shown
T1 sequence (O95069 1-426 D309R/W310L/L311V/L365I/T411A): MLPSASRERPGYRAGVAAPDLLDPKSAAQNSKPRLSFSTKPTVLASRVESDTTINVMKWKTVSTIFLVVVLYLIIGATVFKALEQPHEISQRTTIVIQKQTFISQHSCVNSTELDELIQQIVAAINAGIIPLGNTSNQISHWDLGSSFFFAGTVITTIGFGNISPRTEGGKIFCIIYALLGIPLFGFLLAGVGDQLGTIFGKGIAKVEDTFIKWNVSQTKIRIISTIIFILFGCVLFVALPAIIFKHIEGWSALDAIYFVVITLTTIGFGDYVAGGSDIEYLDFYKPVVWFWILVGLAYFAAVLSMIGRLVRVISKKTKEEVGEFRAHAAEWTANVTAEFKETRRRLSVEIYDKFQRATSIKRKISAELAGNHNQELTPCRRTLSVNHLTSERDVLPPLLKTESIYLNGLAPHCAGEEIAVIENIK
From the text: The expression vector pLP160 was generated by inserting a poly (A)n tract (n=30) followed by a BglII site between the Not1 and XbaI sites of pBluescript SK (+/−) (Stratagene). The final vector contains a deletion from the poly(A) tract through the BamH1 site. The TPKC1 ORF was amplified by PCR with 5′ primer (5′-AAAAAGCTTGCCACCATGCTTCCCAGCGCC-3′) and 3′ primer (5′-CTA TTT GAT GTT CTC-3′), digested with the HindIII and inserted into the vector pLP160 digested with HindIII and SmaI to give pLP163. This construct was linearized with BglII for in vitro cRNA transcription with T7 RNA polymerase (Ambion). The cRNA was quantified by gel electrophoresis using RNA standards (Gibco BRL). One ng of TPKC1 cRNA (23 nl of 40 ng/μl solution) was microinjected into defolliculated oocytes from Xenopus laevis. Oocytes were incubated at 17° C. with gentle shaking in ND96 medium. Whole cell electrophysiological recordings were taken 1-3 days post-injection at room temperature in a constantly-perfusing bath using a two-electrode voltage clamp protocol of 300 ms pulses from −150 to +60 mV from a holding potential of −90 mV. The interval between pulses was one second. Electrodes (3 MΩ current injection, 30 MΩ voltage recording) contained 4 M potassium acetate.

[2] = molecular target: T2, RATRAK (Rattus norvegicus, UniProt P63142); assay: Yeast agar plate bioassay, RATRAK-dependent growth of CY162; assay type: cell-based; conditions: CY162 yeast bearing pRATRAK; filter disk with 20 μl of 1 M solution; blocked to a much greater extent than pKAT1
T2 construct: expressed in transfected cells; host or cells: Saccharomyces cerevisiae CY162 carrying pRATRAK
T2 sequence (P63142 whole entry): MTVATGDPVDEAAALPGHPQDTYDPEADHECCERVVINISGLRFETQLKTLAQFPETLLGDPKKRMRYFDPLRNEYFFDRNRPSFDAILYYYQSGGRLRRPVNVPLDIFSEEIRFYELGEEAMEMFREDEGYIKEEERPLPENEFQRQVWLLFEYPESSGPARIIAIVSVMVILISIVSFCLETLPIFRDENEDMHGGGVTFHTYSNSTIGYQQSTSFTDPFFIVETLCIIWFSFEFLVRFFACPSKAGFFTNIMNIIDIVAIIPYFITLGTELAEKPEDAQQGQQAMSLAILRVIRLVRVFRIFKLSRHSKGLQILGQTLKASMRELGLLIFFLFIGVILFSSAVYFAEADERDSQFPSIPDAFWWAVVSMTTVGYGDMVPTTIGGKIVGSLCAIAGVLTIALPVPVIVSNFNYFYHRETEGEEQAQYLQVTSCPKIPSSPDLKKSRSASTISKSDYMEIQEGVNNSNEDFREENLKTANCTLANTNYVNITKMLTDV
Protocol: (§1) FIG. 8. Inhibition of growth of yeast cells containing heterologous potassium channels. CY162 cells (10^5) bearing the indicated plasmids are plated in arginine phosphate agar medium containing 0.2 mM potassium chloride. Sterile filter disks were placed on the surface of the agar and saturated with 20 μl of a 1 M solution of potassium channel blocking compound. Clockwise from upper left-hand comer is BaCl2, CsCl, TEA, and RbCl. KCl is applied to the center disk.
(§2) Yeast strains dependent on heterologous potassium channels for growth should be sensitive to non-specific potassium channel blocking compounds. To test the potassium channel blocking properties of several compounds, a convenient agar plate bioassay is employed. Strains containing pKAT1, pRATRAK, pDmORF1, and pYES2 are plated in arginine-phosphate-dextrose agar medium lacking ura and containing various amounts of potassium chloride. Arginine-phosphate-dextrose medium is used to avoid interference from potassium and ammonium ions present in standard synthetic yeast culture medium. Sterile filter disks were placed on the surface of the agar and saturated with potassium channel blocking ions CsCl, BaCl2, and TEA. The growth of heterologous potassium channel containing strains is inhibited by potassium channel blocking ions, in a channel dependent manner. DmORF1-dependent growth is blocked by BaCl2 but not by CsCl or TEA. KAT-dependent growth is blocked by BaCl2, CsCl and TEA. RATRAK-dependent growth is blocked by BaCl2, CsCl and TEA to a much greater extent than pKAT1, reflecting in part a slower growth rate of pRATRAK-containing cells.

[3] = molecular target: T3, KAT1 (Arabidopsis thaliana, UniProt Q39128); assay: Yeast agar plate bioassay, KAT-dependent growth of CY162; assay type: cell-based, plant; conditions: CY162 yeast bearing pKAT1; filter disk with 20 μl of 1 M solution; arginine phosphate agar, 0.2 mM KCl
T3 construct: expressed in transfected cells; host or cells: Saccharomyces cerevisiae CY162 carrying pKAT1
T3 sequence (Q39128 whole entry): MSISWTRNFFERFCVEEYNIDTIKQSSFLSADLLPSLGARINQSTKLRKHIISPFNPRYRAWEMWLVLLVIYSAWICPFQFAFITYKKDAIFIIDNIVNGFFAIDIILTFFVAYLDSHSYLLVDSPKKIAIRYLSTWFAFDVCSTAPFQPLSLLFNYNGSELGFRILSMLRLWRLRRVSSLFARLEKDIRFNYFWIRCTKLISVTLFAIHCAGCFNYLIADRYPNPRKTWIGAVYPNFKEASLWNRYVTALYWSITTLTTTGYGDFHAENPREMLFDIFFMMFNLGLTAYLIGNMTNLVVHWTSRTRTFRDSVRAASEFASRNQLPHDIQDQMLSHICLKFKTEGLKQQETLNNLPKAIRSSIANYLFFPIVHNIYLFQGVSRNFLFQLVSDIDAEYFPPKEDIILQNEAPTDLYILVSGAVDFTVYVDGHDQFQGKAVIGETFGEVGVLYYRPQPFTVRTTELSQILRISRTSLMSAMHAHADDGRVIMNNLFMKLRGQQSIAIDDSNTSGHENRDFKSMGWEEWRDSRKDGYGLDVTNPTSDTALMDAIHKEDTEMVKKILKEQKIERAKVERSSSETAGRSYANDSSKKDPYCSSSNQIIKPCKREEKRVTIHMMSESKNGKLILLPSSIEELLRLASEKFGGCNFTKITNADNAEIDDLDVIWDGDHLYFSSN
Protocol: as §1, §2

[4] = molecular target: T4, DmORF1 (Drosophila melanogaster, UniProt Q94526); assay: DmORF1-induced currents in X. laevis oocytes, two-electrode voltage clamp; assay type: cell-based; set-up: A single long open reading frame sufficient to encode a protein of 618 amino acids (predicted MW 68 kDa) is encoded in pDmORF1; expressed in transfected cells; conditions: two-electrode whole-cell voltage clamp
T4 sequence (Q94526 other isoform, or with tags, fused parts or gaps with the stated changes): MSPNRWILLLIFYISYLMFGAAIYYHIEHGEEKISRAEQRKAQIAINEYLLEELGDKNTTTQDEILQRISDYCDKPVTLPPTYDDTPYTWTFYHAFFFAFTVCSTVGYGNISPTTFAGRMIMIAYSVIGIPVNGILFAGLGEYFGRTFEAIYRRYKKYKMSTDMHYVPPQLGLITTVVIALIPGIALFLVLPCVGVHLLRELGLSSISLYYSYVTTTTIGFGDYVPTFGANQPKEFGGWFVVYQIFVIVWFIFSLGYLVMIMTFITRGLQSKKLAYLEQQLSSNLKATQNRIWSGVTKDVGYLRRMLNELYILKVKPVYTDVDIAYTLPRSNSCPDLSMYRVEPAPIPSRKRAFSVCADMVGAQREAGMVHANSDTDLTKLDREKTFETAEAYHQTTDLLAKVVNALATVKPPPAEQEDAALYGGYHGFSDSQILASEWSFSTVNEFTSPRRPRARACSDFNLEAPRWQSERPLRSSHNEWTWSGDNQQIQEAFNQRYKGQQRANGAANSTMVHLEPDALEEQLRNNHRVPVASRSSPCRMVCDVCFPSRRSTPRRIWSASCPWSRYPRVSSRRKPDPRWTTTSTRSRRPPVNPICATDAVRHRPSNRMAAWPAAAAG
Protocol: To test this hypothesis, the electrophysiological properties of the putative potassium channel encoded by DmORF1 was examined by expression in X. laevis oocytes. Currents were measured by two-electrode whole-cell voltage clamp. DNA sequences encoding the open reading frame of DmORF1 were amplified by polymerase chain reaction (PCR) using the following oligonucleotides:
The full length PCR product was cloned into corresponding sites in pSP64 poly A (Promega), forming pMP147. Template DNA was linearized with EcoRI and RNA transcribed using the Message Machine (Ambion) in vitro transcription kit according to manufacturers instructions. A sample of the RNA was resolved in a MOPS-acetate-formaldehyde agarose gel and RNA content was estimated by ethidium bromide staining. The remainder was stored on dry ice. X. laevis oocytes were isolated and injected with 50 nl of sterile TE containing 5-20 ng transcript according to published procedures. After three days, whole oocyte currents were recorded using a two-electrode voltage clamp. Electrodes contained 3M KCl and had resistances of 0.3-1.0 MW. Recordings were performed faith constant perfusion at room temperature in the presence of either low (10 mM) or high (90 mM) potassium chloride.

[5] = molecular target: T4, DmORF1; assay: Yeast agar plate bioassay, DmORF1-dependent growth of CY162; assay type: cell-based; set-up: A single long open reading frame sufficient to encode a protein of 618 amino acids (predicted MW 68 kDa) is encoded in pDmORF1; expressed in transfected cells; host or cells: Saccharomyces cerevisiae CY162 (trk1 trk2) carrying pDmORF1 (pYES2 library plasmid); conditions: CY162 yeast bearing pDmORF1; filter disk with 20 μl of 1 M solution; arginine phosphate agar, 0.2 mM KCl
Protocol: as §1, §2

[6] = molecular target: T4, DmORF1; assay: 86Rb uptake into CY162 cells containing DmORF1; assay type: cell-based; set-up: A single long open reading frame sufficient to encode a protein of 618 amino acids (predicted MW 68 kDa) is encoded in pDmORF1; expressed in transfected cells; host or cells: Saccharomyces cerevisiae CY162 (trk1 trk2) carrying pDmORF1 (pYES2 library plasmid); conditions: CY162-DmORF1 yeast cells, Ca-MES buffer, room temperature
Protocol: Expression of DmORF permits CY162 cells to grow on medium containing a low concentration of potassium, implying that DmORF1 supplies high affinity potassium uptake capacity. To characterize the potassium uptake properties of CY162 cells containing DmORF1, ^86Rb uptake studies were performed.
Yeast strains containing heterologous potassium-expression plasmids CY162-DmORF1, CY162-pKAT and the control strain CY162-pYES2 (Clontech) were cultured overnight in SC Gal-ura containing 0.1 M KCl. The cells were harvested, washed with sterile doubled distilled water and starved for K^+ for 6 hours in Ca-MES buffer. Cells were washed again and distributed to culture tubes (10^8 cells/tube) containing ^86RbCl in Ca-MES buffer.

[7] = molecular target: T1, TPKC1; assay: Growth of TPKC1-containing CY162 cells on low potassium media; assay type: cell-based; set-up: The TPKC1 ORF was amplified by PCR with 5′ primer; expressed in transfected cells; conditions: low (2-3 mM KCl) potassium media
From the text: The TPKC1 ORF was amplified using oligos that added restriction endonuclease cleavage sites appropriate for insertion into the yeast expression vectors pLP100 and pYES2 (Invitrogen). The corresponding TPKC1 expression plasmids, pLP155 and pLP156, were constructed using standard molecular biological methodology and used to transform S. cerevisiae CY162 cells using the lithium acetate method. The resulting yeast strains were examined for their ability to grow on standard synthetic agar media containing a low concentration of KCl. Expression of TPKC1 in CY162 cells supports their growth on low (2-3 mM KCl) potassium media. […] The growth of TPKC1-containing CY162 cells was inhibited by the known potassium channel blockers Ba^2+, Ca^2+, Cs^+, and quinine, but not by TEA. The oligos used for the cloning of 5′ and 3′ RACE fragments were used in this analysis as well.
LY890 (MAT trk1:: LYS2 trk2::TRP1 ura3-52 lys2-801, ade2-101, trp1-Δ63, his3-Δ200, leu2-Δ1) was constructed by deletion of the TRK1 and TRK2 genes from the parent yeast strain YPH500 (Stratagene). The full length TPKC1 ORF fragment was generated by PCR; 5′ primer (5′-AAAAGATCTAAAATGCTTCCCAGCGCC-3′), 3′ primer (AAAGTCGACCTATTTGATGTTCTCAAT-3′) and inserted into the yeast expression vector pLP100 [18] to yield pLP155. pLP155 was used to transform S. cerevisiae LY890 cells using standard methods. CY162 was constructed as described in J. A. Anderson et al., Proc. Natl. Acad. Sci. USA 89, 3736-3740 (1992). Yeast cells (10^5) containing the indicated plasmids were plated in RPD (arginine phosphate glucose) low potassium (2 mM) agar media and compounds applied to the surface of the agar.

[8] = system: CY162 cells; assay: Yeast agar plate bioassay, control pYES2-containing CY162 strain; assay type: cell-based, Saccharomyces cerevisiae; conditions: CY162 bearing pYES2; low potassium agar; compound on filter disk
Protocol: as §1
as §2, with “KAT-dependent growth is blocked by BaCl2, CsCl and TEA. RATRAK-dependent growth is blocked by BaCl2, CsCl and TEA to a much greater extent than pKAT1, reflecting in part a slower growth rate of pRATRAK-containing cells.” left out

Row | SMILES | block of TPKC1 current [1] | block of RATRAK-dependent growth [2] | block of KAT-dependent growth [3] | block of DmORF1-dependent growth [5] | inhibition of growth of TPKC1-containing CY162 cells [7] | also measured
1 | Nc1ccncc1 [4-AP] | block to a lesser degree |  |  |  |  | 
2 | [Ba+2].[Cl-].[Cl-] [BaCl2] |  | blocked | blocked | blocked | inhibited | attenuation of DmORF1 potassium currents [4]: greatly attenuated; inhibition of TPKC1 current ([1]; applied at 1 mM, FIG. 11D): 50%; inhibition of 86Rb uptake [6]: inhibited
3 | [Ca+2] [Ca^2+] | block to a lesser degree |  |  |  | inhibited | 
4 | [Cl-].[Cs+] [CsCl] | failed to block | blocked | blocked | not | inhibited | 
5 | [Cl-].[K+] [KCl] |  |  |  |  |  | growth of control pYES-containing strain around applied compound [8]: grows only around applied
6 | [Cl-].[Rb+] [RbCl] |  |  |  |  |  | growth of control pYES-containing strain around applied compound [8]: grows only around applied
7 | CC[N+](CC)(CC)CC [TEA] | failed to block | blocked | blocked | not | not | 
8 | C=C[C@H]1C[N@@]2CC[C@H]1C[C@H]2[C@H](O)c1ccnc2ccc(OC)cc12 [quinine] | block to a lesser degree |  |  |  | inhibited | 

Source: US20050032165A1, “Potassium channels, nucleotide sequences encoding them, and methods of using same” (BASF AKTIENGESELLSCHAFT, priority 1994, published 2005)
